“Also recorded” adds a separate entry of the source.

The subject of experiment [1] is HMGB1 and HMGB2. Particulars: neuroinflammation model; cited from earlier work.
The test system of experiment [2] is CCl4-induced liver fibrosis. In words: CCl4-induced liver fibrosis model in mice (Masson Trichrome, ALT, gross morphology). Type of experiment: in vivo, mouse. The procedure:
Animal Care: All animal care and experimental procedures were approved by the Institutional Animal Care and Use Committee at the University of Connecticut. Shp^−/− mice were described previously. Hmgb2^−/− mice were obtained from Dr. Stella Tsirka at Stony Brook University. C57BL/6J mice were purchased from Jackson Laboratory. All mice were maintained on a 12-h light/dark cycle with free access to food and water unless otherwise indicated. For CCl4 treatment, CCl4 (Sigma) was dissolved in corn oil and administered to mice at a dose of 850 μl/kg BW by intraperitoneal injection (IP) twice a week for 6 or 10 weeks with or without ICM. Age-matched control mice were treated with a corn oil vehicle. For CCl4+ICM treatment, mice were treated with CCl4 for 2 weeks and then ICM (Department of Pharmaceutical Sciences at UConn) was dissolved in PEG (Sigma) and treated with mice (10 mg/kg) every day for 4 or 8 weeks in combination with CCl4. To induce overexpression of HMGB2 in liver, AAV8-Hmgb2 or a control AAV8-GFP was given to mice by tail vein injection at a dose of 5×10^10 GC. To knockdown HMGB2 in mouse livers, AAV-shHmgb2 or a control AAV-shGFP was delivered to mice at a dose of 2×10^10 GC by tail vein injection. One week later, mice injected with AAVs were treated with CCl4 or CCl4 +ICM as described above and sacrificed. Livers were removed and snap-frozen in liquid nitrogen for RNA and protein analysis. For the collection of mouse fetal livers, pregnant female mice were sacrificed at E12.5, E15, and E18.5 and livers were removed from the embryos. Additionally, post-natal mouse livers were harvested at postnatal day P1 and P60.
Histology: Livers were fixed in 10% neutral buffered formalin and embedded in paraffin. Liver blocks were cut at 5 μm and the sections were stained with hematoxylin and eosin (H&E) and Masson's trichrome according to standard procedures.
ALT and AST: Alanine transaminase (ALT) and Aspartate aminotransferase (AST) were measured by Infinity ALT (GPT) Liquid Stable Reagent and AST (GOT) Liquid Stable Reagent according to the manufacturer's instructions (Thermo Scientific).
For CCl4 treatment, CCl4 (Sigma) was dissolved in corn oil and administered to mice at a dose of 850 µl/kg BW by intraperitoneal injection (IP) twice a week for 6 or 10 weeks with or without ICM. Age-matched control mice were treated with a corn oil vehicle. For CCl4+ICM treatment, mice were treated with CCl4 for 2 weeks and then ICM (Department of Pharmaceutical Sciences at UConn) was dissolved in PEG (Sigma) and treated with mice (10 mg/kg) every day for 4 or 8 weeks in combination with CCl4. To induced overexpression of HMGB2 in liver, AAV8-Hmgb2 or a control AAV8-GFP was given to mice by tail vein injection at a dose of 5×10^10 GC. […]

On to `CC1(C)Oc2cc(O)ccc2C2C1=CCn1c(=O)n(-c3ccccc3)c(=O)n12` (centres unmarked) [ICM, inflachromene], for which, in experiment [1], the “inhibitor profile HMGB1 / HMGB2” value was “dual inhibitor of both HMGB1 and HMGB2”. In experiment [2] (ICM 10 mg/kg i.p. daily for 4 wks (FIG. 16B)), the liver gross morphology result is on record as “improved liver gross morphology”. The “plasma ALT levels” value in experiment [2] (ICM 10 mg/kg i.p. daily for 4 wks (FIG. 16C)) is recorded as “decreased plasma ALT levels”. In addition, the “serum ALT” value in experiment [2] (ICM (FIG. 5B)) was “decreases”. The liver fibrosis entry in experiment [2] (ICM in PEG 10 mg/kg i.p. daily for 4 wks, Masson Trichrome staining) is reported as “decreases; also recorded: diminished liver fibrosis”.

Values taken from patent US20180320177A1, “COMPOSITIONS AND METHODS FOR THE TREATMENT OF LIVER FIBROSIS” (UNIVERSITY OF CONNECTICUT, priority 2015, published 2018).
